Results published in US20240124454A1, “TRICYCLIC COMPOUND AND USE THEREOF” (NANJING ZAIMING PHARMACEUTICAL CO., LTD., priority 2020, published 2024).
Like-named read-outs stand apart in the source and are kept apart here.

Molecular target: MAT2A (Homo sapiens (Human), UniProt P31153)
Assay: MAT2A biochemical test (inorganic phosphate colorimetric, PiColorLock)
Conditions: read-out: MAT2A inhibitory Activity IC50
Source text: Test Example 1. Biochemical Test
The brief introduction of the test principle: L-methionine and ATP can be converted into SAM, inorganic phosphate, and inorganic diphosphate under the catalysis of MAT2A enzymes. The content of inorganic phosphate in the sample can be quantitatively determined by adding a developer such as ammonium molybdate or the like to the enzymatic reaction mixture, thereby reflecting the enzymatic activity of MAT2A.
Reference: The experiment referred to the method disclosed in patent WO2018045071.
Material: MAT2A screening kits were purchased from BPS bioscience (U.S.); 384-well plates were purchased from Corning Company (U.S.). • 1. MAT2A protein (Pharmaron Beijing Co., Ltd.); • 2. L-methionine (Sigma #M9625-5G) • 3. ATP (Sigma #A7699-1G) • 4. KCl (Sigma #60142-500ML-F) • 5. Tris (Sigma #T2663-1L) • 6. MgCl2 (Sigma #M1028) • 7. EDTA (Invitrogen #AM9260G) • 8. BSA (Sangon Biotech #A500023-0100) • 9. PiColorLock (abcam #ab270004)
Detection method: In the experimental group, the test compound was dissolved in DMSO, diluted to a final concentration of 10 μM using Echo, and diluted 3-fold. 80 nL of the dilution was transferred to a 384-well plate.
The experimental buffer (50 mM Tris, 50 mM KCl, 15 mM MgCl2, 100 μM EDTA, 0.005% BSA) was prepared. The MAT2A protein was diluted with the experimental buffer (at final concentration of […]). 40 μL of 2×MAT2A solution was added to the 384-well plate. The plate was centrifuged at 1000 rpm for 1 min and incubated at room temperature for 120 min.
L-methionine and ATP (the final concentration of L-methionine was […] and the final concentration of ATP was 400 μM) were diluted with the experimental buffer. 40 μL of 2×L-methionine and ATP solution was added to initiate the reaction. The plate was centrifuged at 1000 rpm for 1 min and incubated at room temperature for 90 min.
The PiColorLock™ reaction catalyst was mixed with the PiColorLock™ buffer at a ratio of 1:100 according to the instructions. 20 μL was added to each well, and the plate was shaken for 30 s. 8 μL stabilizing reagent was added, and the plate was shaken for 30 s. The signal values were measured after 30 min of incubation at room temperature.
A negative control group and a positive control group were respectively used as Bottom and Top. The negative control group was not added with MAT2A protein, and other operations were consistent with those of the experimental group. The positive control group was not added with the test compound, only added with DMSO in the same volume, and other operations were consistent with those of the experimental group.
The % Compound inhibition was calculated and fitted to give the IC50 of the compound.
% Compound inhibition=1-100%×(Signal−Bottom)/(Top−Bottom).
Signal referred to the signal value of the experimental group, Bottom referred to the average signal value of the negative control group, and Top referred to the average signal value of the positive control group.
Under the condition of this experiment, the inhibitory effect of the test compound on MAT2A can be expressed as the IC50 of the inhibition on the phosphate production level during the enzymatic reaction.

Chain of MAT2A (P31153 whole entry): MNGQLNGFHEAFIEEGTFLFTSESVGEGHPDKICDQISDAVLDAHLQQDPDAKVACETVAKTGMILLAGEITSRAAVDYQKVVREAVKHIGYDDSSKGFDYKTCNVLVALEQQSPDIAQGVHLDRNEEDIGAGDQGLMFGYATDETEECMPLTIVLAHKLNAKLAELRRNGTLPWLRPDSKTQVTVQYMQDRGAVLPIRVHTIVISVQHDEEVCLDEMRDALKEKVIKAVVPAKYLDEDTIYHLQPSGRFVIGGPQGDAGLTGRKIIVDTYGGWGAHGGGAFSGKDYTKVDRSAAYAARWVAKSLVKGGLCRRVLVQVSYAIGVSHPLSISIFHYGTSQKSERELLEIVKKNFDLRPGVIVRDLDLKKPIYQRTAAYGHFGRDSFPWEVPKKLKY

Row | IC50 (class symbols) [nM] | IC50 (numeric values) [nM] | Compound
1 | 100 to 500 | 337 | Cn1cnc2c(=O)n(-c3cnccn3)c3nc(C(F)(F)F)ccc3c21 [Compound 77, 1-methyl-5-(pyrazin-2-yl)-7-(trifluoromethyl)-1,5-dihydro-4H-imidazo[4,5-c][1,8]naphthyridin-4-one]
2 | < 100 | 38.7 | O=c1c2ncn(C(F)F)c2c2ccc(Cl)cc2n1-c1cccnc1C1CC1 (single isomer, unassigned) [Compound 87-P2, 7-chloro-5-(2-cyclopropylpyridin-3-yl)-1-difluoromethyl-1,5-dihydro-4H-imidazo[4,5-c]quinolin-4-one]
3 | 100 to 500 | 442 | O=c1c2ocnc2c2ccc(C(F)(F)F)nc2n1-c1ccc(OC(F)F)cc1 [Compound 18, 5-(4-(difluoromethoxy)phenyl)-7-(trifluoromethyl)oxazolo[5,4-c][1,8]naphthyridin-4(5H)-one]
4 | 100 to 500 | 201 | Cn1cnc2c(=O)n(-c3cncnc3)c3nc(C(F)(F)F)ccc3c21 [Compound 76, 1-methyl-5-(pyrimidin-5-yl)-7-(trifluoromethyl)-1,5-dihydro-4H-imidazo[4,5-c][1,8]naphthyridin-4-one]
5 | < 100 | 42 | Cn1cnc2c(=O)n(-c3ccccc3C(F)(F)F)c3nc(C(F)(F)F)ccc3c21 (single isomer, unassigned) [Compound 57-P2, 1-methyl-7-(trifluoromethyl)-5-(2-(trifluoromethyl)phenyl)-1,5-dihydro-4H-imidazo[4,5-c][1,8]naphthyridin-4-one]
6 | < 100 | 41.4 | CCc1ncccc1-n1c(=O)c2ncn(C)c2c2ccc(C(F)(F)F)nc21 (single isomer, unassigned) [Compound 67-P2, 5-(2-ethylpyridin-3-yl)-1-methyl-7-(trifluoromethyl)-1,5-dihydro-4H-imidazo[4,5-c][1,8]naphthyridin-4-one]
7 | 100 to 500 | 314 | CN(C)CCn1cnc2c(=O)n(-c3ccccc3Cl)c3nc(C(F)(F)F)ccc3c21 [Compound 53, 5-(2-chlorophenyl)-1-(2-(dimethylamino)ethyl)-7-(trifluoromethyl)-1,5-dihydro-4H-imidazo[4,5-c][1,8]naphthyridin-4-one]
8 | < 100 | 33.6 | O=c1c2ncoc2c2ccc(C(F)(F)F)cc2n1-c1cccnc1C1CC1 (single isomer, unassigned) [Compound 85-P2, 5-(2-cyclopropylpyridin-3-yl)-7-(trifluoromethyl)oxazolo[4,5-c]quinolin-4(5H)-one]
9 | < 100 | 47.3 | Cn1cnc2c(=O)n(-c3cccc(F)c3Cl)c3cc(C(F)(F)F)ccc3c21 [Compound 66, 5-(2-chloro-3-fluorophenyl)-1-methyl-7-(trifluoromethyl)-1,5-dihydro-4H-imidazo[4,5-c]quinolin-4-one]
10 | < 100 | 90.8 | Cn1cnc2c(=O)n(-c3ccc(OC(F)F)cc3Cl)c3nc(C(F)(F)F)ccc3c21 (single isomer, unassigned) [Compound 58-P2, 5-(2-chloro-4-(difluoromethoxy)phenyl)-1-methyl-7-(trifluoromethyl)-1,5-dihydro-4H-imidazo[4,5-c][1,8]naphthyridin-4-one]
11 | 100 to 500 | 296 | NCCn1cnc2c(=O)n(-c3ccccc3Cl)c3nc(C(F)(F)F)ccc3c21 [Compound 55, 1-(2-aminoethyl)-5-(2-chlorophenyl)-7-(trifluoromethyl)-1,5-dihydro-4H-imidazo[4,5-c][1,8]naphthyridin-4-one]
12 | < 100 | 36 | Cn1cnc2c(=O)n(-c3cccnc3C3CC3)c3cc(C(F)(F)F)ccc3c21 (atropisomer, axis not shown) [Compound 48, 5-(2-cyclopropylpyridin-3-yl)-1-methyl-7-(trifluoromethyl)-1,5-dihydro-4H-imidazo[4,5-c]quinolin-4-one]

The next lines start with the compound.

Row | Compound | IC50 (class symbols) [nM] | IC50 (numeric values) [nM]
13 | Cn1cnc2c(=O)n(-c3ccc(OC(F)F)cc3)c3nc(C(F)(F)F)ccc3c21 [Compound 15, 5-(4-(difluoromethoxy)phenyl)-1-methyl-7-(trifluoromethyl)-1H-imidazo[4,5-c][1,8]naphthyridin-4(5H)-one] | < 100 | 38.5
14 | CCOc1ccc2c3c(ncn3C)c(=O)n(-c3ccc(OC(F)F)cc3)c2n1 [Compound 14, 5-(4-(difluoromethoxy)phenyl)-7-ethoxy-1-methyl-1,5-dihydro-4H-imidazo[4,5-c][1,8]naphthyridin-4-one] | < 100 | 46.4
15 | Cc1ccc2c3c(ncn3C)c(=O)n(-c3ccccc3Cl)c2n1 [Compound 56, 5-(2-chlorophenyl)-1,7-dimethyl-1,5-dihydro-4H-imidazo[4,5-c][1,8]naphthyridin-4-one] | < 100 | 73.7
16 | O=c1c2ocnc2c2ccc(C(F)(F)F)nc2n1-c1ccccc1Cl [Compound 51, 5-(2-chlorophenyl)-7-(trifluoromethyl)oxazolo[5,4-c][1,8]naphthyridin-4(5H)-one] | 100 to 500 | 182
17 | O=c1[nH]c2c(=O)n(-c3ccccc3Cl)c3nc(C(F)(F)F)ccc3c2[nH]1 [Compound 4, 5-(2-chlorophenyl)-7-(trifluoromethyl)-3,5-dihydro-1H-imidazo[4,5-c][1,8]naphthyridine-2,4-dione] | < 100 | 69.6
18 | Cc1ccccc1-n1c(=O)c2ncn(C)c2c2ccc(C(F)(F)F)nc21 [Compound 31, 1-methyl-5-(2-methylphenyl)-7-(trifluoromethyl)-1,5-dihydro-4H-imidazo[4,5-c][1,8]naphthyridin-4-one] | 100 to 500 | 159
19 | Cn1cnc2c(=O)n(-c3cccc(F)c3)c3nc(C(F)(F)F)ccc3c21 [Compound 63, 5-(3-fluorophenyl)-1-methyl-7-(trifluoromethyl)-1,5-dihydro-4H-imidazo[4,5-c][1,8]naphthyridin-4-one] | < 100 | 48.1
20 | Cc1ncccc1-n1c(=O)c2ncoc2c2ccc(Cl)cc21 [Compound 83, 7-chloro-5-(2-methylpyridin-3-yl)oxazolo[4,5-c]quinolin-4(5H)-one] | < 100 | 54.7
21 | Cn1cnc2c(=O)n(-c3ccccc3F)c3nc(C(F)(F)F)ccc3c21 [Compound 23, 5-(2-fluorophenyl)-1-methyl-7-(trifluoromethyl)-1,5-dihydro-4H-imidazo[4,5-c][1,8]naphthyridin-4-one] | < 100 | 78.8
22 | Cn1cc2c(n1)c(=O)n(-c1ccc(OC(F)F)cc1)c1nc(C(F)(F)F)ccc21 [Compound 12, 5-(4-(difluoromethoxy)phenyl)-2-methyl-7-(trifluoromethyl)-2,5-dihydro-4H-pyrazolo[3,4-c][1,8]naphthyridin-4-one] | 100 to 500 | 102
23 | O=c1c2ncoc2c2ccc(C(F)(F)F)nc2n1-c1ccccc1Cl [Compound 8, 5-(2-chlorophenyl)-7-(trifluoromethyl)oxazolo[4,5-c][1,8]naphthyridin-4(5H)-one] | < 100 | 64.4
24 | Cn1cnc2c(=O)n(-c3ccc(F)cc3Cl)c3nc(C(F)(F)F)ccc3c21 [Compound 32, 5-(2-chloro-4-fluorophenyl)-1-methyl-7-(trifluoromethyl)-1,5-dihydro-4H-imidazo[4,5-c][1,8]naphthyridin-4-one] | 100 to 500 | 119
